{
  "source": "patent US20130137126A1",
  "about": "“USE OF A BETA-G[…] FOR THE DETECTION AND/OR IDENTIFICATION OF C. DIFFICILE” (BIOMERIEUX, priority 2010, published 2013)",
  "type_in_all_cases": "cell-based",
  "key": {"Clostridium difficile [1]": {"system": "Clostridium difficile", "assay": "Activating effect of Ar-beta-glucoside compounds on beta-glucosidase activity, colony coloration on agar media with CHE-beta-glucoside", "settings": "equimolar compounds with CHE-beta-glucoside 0.3 g/l; 24 h", "procedure": "Six strains of Clostridium difficile were tested on the media comprising a compound which could act as a beta-glucosidase activator in these strains. That of the strain bearing the reference 08 01 091 is 056. The compounds tested as beta-glucosidase activators are as follows: • Arbutin; • O-methyl b-glucoside; • Cellobiose; • Salicin; • 4 Aminophenyl-b-glucoside; • 4-methyl-umbelliferone-b-glucoside; • aesculin.\nThey were tested at concentrations which make it possible to have the same molarity for each of the compounds.\nThe media used are prepared on the basis of the C. difficile chromID® medium indicated supra, for example 1, to which is added the CHE-beta-glucoside substrate at 0.3 g/l and, respectively, one of the compounds according to the following table:\n(§1) The media are distributed into Petri dishes.\n(§2) The seeding is performed from 48 h pre-cultures at 37° C. in anaerobiosis.\n(§3) A suspension in physiological water at 0.5 McF is carried out and then the strains are seeded with the 10 μl calibrated loop.\nReadings are performed after 24 h of incubation at 37° C. and in anaerobiosis.\n(§4) Reading scale of the enzymatic activity/ coloration • 0=no activity • 0.5=very pale coloration • 1=clear low-intensity coloration • 2=distinct medium-intensity coloration, • 3=presence of an intense coloration, • 4=presence of a very intense coloration.\n(§5) The coloration obtained with this substrate is grey up to an intensity of 1, and black for the other values."}, "Clostridium difficile [2]": {"system": "Clostridium difficile", "assay": "Activating effect of arbutin on various beta-glucosidase substrates, colony coloration on agar media", "settings": "substrates DHF-, alizarin- and 3HF-beta-glucoside; 24 h and 48 h", "procedure": "The eight strains of Clostridium difficile tested in Example 1 were tested on media comprising DHF-beta-glucoside (media A), alizarin-beta-glucoside (media B) or 3HF-beta-glucoside (Media C) and an increasing concentration of arbutin.\nThe reading of the dishes is then carried out at 24 h and 48 h.\nThe media used are prepared on the basis of the C. difficile chromID® medium indicated supra, for example 1, to which arbutin is added according to the following table:\nAccording to the substrates, the media are therefore as follows: • DHF-beta-glucoside at 400 mg/L (media TA, 1A, 2A and 3A) • Alizarin-beta-glucoside at 50 mg/L (media TB, 1 B, 2B and 3B) • 3HF-beta-glucoside at 300 mg/L (media TC, 1C, 2C and 3C)\nas §1, §2, §3\nReadings are performed after 24 h and 48 h of incubation at 37° C. in anaerobiosis.\nas §4"}, "Clostridium difficile [3]": {"system": "Clostridium difficile", "assay": "Activating effect of arbutin on a beta-glucosidase substrate (CHE-beta-glucoside), colony coloration on agar media", "settings": "24 h", "procedure": "Eight strains of Clostridium difficile, from the Applicant's collection, were tested on media comprising arbutin at different concentrations with or without CHE-beta-glucoside present. The reading of the dishes is then carried out at 24 h. The media is made up as follows:\nC. difficile ChromID® base common to all of the media:\nThen addition of arbutin and/or CHE-beta-glucoside, according to the media:\nas §1, §2, §3\nReadings are performed after 24 h of incubation at 37° C. in anaerobiosis.\nas §4, §5"}},
  "data": [
    {"compound": "OC[C@H]1O[C@@H](Oc2ccc(O)cc2)[C@H](O)[C@@H](O)[C@@H]1O", "note": "[Arbutin, hydroquinone-beta-D-glucoside]", "values": [
      {"measurement": "activating effect on beta-glucosidase of Clostridium difficile", "setting": "Clostridium difficile [1]", "value": "observed activation of beta-glucosidase"},
      {"measurement": "coloration intensity in the presence of arbutin", "setting": "Clostridium difficile [2]", "value": "an improvement in the coloration intensity is noted regardless of the substrate used"},
      {"measurement": "activation of the beta-glucosidase (intensification of coloration, grey to black)", "setting": "Clostridium difficile [3]; arbutin added in the presence of CHE-beta-glucoside", "value": "an activation of the beta-glucosidase is noted"},
      {"measurement": "coloration of the colonies", "setting": "Clostridium difficile [3]; arbutin alone, without CHE-beta-glucoside", "value": "does not allow coloration of the colonies to be obtained"}
    ]},
    {"compound": "CO[C@@H]1O[C@H](CO)[C@@H](O)[C@H](O)[C@H]1O", "note": "[O-methyl-beta-glucoside, reference compound]", "values": [
      {"measurement": "activating effect on beta-glucosidase of Clostridium difficile", "setting": "Clostridium difficile [1]", "value": "do not have an activating effect"}
    ]},
    {"compound": "O=c1ccc2cc(O[C@@H]3O[C@H](CO)[C@@H](O)[C@H](O)[C@H]3O)c(O)cc2o1", "note": "[aesculin, 6,7-dihydroxy-coumarin-beta-glucoside]", "values": [
      {"measurement": "activating effect on beta-glucosidase of Clostridium difficile", "setting": "Clostridium difficile [1]", "value": "observed activation of beta-glucosidase"}
    ]},
    {"compound": "OCc1ccccc1O[C@@H]1O[C@H](CO)[C@@H](O)[C@H](O)[C@H]1O", "note": "[salicin, 2-(hydroxymethyl)-phenyl-beta-D-glucoside]", "values": [
      {"measurement": "activating effect on beta-glucosidase of Clostridium difficile", "setting": "Clostridium difficile [1]", "value": "observed activation of beta-glucosidase"}
    ]},
    {"compound": "Nc1ccc(O[C@@H]2O[C@H](CO)[C@@H](O)[C@H](O)[C@H]2O)cc1", "note": "[4-Aminophenyl-beta-glucoside]", "values": [
      {"measurement": "activating effect on beta-glucosidase of Clostridium difficile", "setting": "Clostridium difficile [1]", "value": "observed activation of beta-glucosidase"}
    ]},
    {"compound": "O=C[C@H](O)[C@@H](O)[C@H](O[C@@H]1O[C@H](CO)[C@@H](O)[C@H](O)[C@H]1O)[C@H](O)CO", "note": "[cellobiose, 4-O-beta-D-glucopyranosyl-D-glucose, reference compound]", "values": [
      {"measurement": "activating effect on beta-glucosidase of Clostridium difficile", "setting": "Clostridium difficile [1]", "value": "do not have an activating effect"}
    ]}
  ]
}
